Measured values as given in US10662195B2, “Protein kinase conjugates and inhibitors” (Celgene Avilomics Research, Inc., priority 2009, dated 2020).
Like-named read-outs stand apart in the source and are kept apart here.

Experiments:
FLT3 = target: T1, FLT3 (Homo sapiens, UniProt P36888); assay: FLT-3 Omnia continuous-read kinase assay; format: biochemical
T1 construct: purchased PV3182
T1 sequence (P36888 27-993): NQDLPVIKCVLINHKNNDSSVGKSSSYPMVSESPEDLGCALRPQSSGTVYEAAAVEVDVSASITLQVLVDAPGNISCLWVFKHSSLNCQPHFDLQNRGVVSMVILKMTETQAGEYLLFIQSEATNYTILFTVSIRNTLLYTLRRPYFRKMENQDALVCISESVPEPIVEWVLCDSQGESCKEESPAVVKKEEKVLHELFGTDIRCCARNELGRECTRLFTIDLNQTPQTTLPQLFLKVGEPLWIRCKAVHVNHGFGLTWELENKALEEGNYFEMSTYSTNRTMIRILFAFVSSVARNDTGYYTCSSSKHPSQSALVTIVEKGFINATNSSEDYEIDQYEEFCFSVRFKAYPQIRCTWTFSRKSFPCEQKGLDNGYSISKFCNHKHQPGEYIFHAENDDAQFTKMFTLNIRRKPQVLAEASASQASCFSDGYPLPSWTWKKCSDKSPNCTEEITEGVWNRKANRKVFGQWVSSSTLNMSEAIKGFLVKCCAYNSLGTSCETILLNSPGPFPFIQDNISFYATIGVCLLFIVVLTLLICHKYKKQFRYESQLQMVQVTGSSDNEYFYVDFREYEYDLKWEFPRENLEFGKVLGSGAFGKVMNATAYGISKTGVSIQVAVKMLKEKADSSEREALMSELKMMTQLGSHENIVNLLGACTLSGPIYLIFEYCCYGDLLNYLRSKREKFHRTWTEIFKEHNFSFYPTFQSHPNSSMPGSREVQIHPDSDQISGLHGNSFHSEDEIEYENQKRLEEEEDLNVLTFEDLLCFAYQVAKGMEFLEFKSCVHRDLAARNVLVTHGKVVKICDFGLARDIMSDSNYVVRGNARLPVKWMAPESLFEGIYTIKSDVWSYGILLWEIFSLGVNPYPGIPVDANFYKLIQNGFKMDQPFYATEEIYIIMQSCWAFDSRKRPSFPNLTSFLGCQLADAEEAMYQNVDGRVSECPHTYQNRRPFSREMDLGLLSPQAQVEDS
Protocol: (§1) A. KDR and FLT-3 Omnia Assay for Potency Assessment:
(§2) The protocol below describes a continuous-read kinase assay to measure inherent potency of Avila Therapeutics' compounds against active KDR and FLT-3 enzymes. The assay was performed substantially as described by the vendor (Invitrogen, Carlsbad, Calif.; http://www.invitrogen.com/content.cfm?pageid=11338.)
(§3) Briefly, 10× stocks of KDR from Invitrogen or BPS Bioscience (PV3660 or 40301) and FLT-3 (PV3182) enzymes, 1.13×ATP (AS001A) and Y9-Sox or Y12-Sox peptide substrates (KCZ1001) were prepared in 1× kinase reaction buffer consisting of 20 mM Tris, pH 7.5, 5 mM MgCl2, 1 mM EGTA, 5 mM β-glycerophosphate, 5% glycerol (10× stock, KB002A) and 0.2 mM DTT (DS001A). 5 μL of enzyme were pre-incubated in a Corning (#3574) 384-well, white, non-binding surface microtiter plate (Corning, N.Y.) for 30 min at 27° C. with a 0.5 μL volume of 50% DMSO and serially diluted compounds prepared in 50% DMSO. Kinase reactions were started with the addition of 45 μL of the ATP/Y9 or Y5-Sox peptide substrate mix and monitored every 30-90 seconds for 60 minutes at λex360/λem485 in a Synergy^4 plate reader from BioTek (Winooski, Vt.). At the conclusion of each assay, progress curves from each well were examined for linear reaction kinetics and fit statistics (R^2, 95% confidence interval, absolute sum of squares). Initial velocity (0 minutes to 20+ minutes) from each reaction was determined from the slope of a plot of relative fluorescence units vs time (minutes) and then plotted against inhibitor concentration to estimate IC50 from Log [Inhibitor] vs Response, Variable Slope model in GraphPad Prism from GraphPad Software (San Diego, Calif.).
[FLT-3]=15 nM, [ATP]=500 μM and [Y5-Sox peptide]=10 μM (ATP KMapp=470 μM)
(§4) The reported IC50_APP and IC50 values are in units of nM.

KDR = KDR (Homo sapiens, UniProt P35968); assay: KDR Omnia continuous-read kinase assay; format: biochemical; set-up: purchased Invitrogen or BPS Bioscience PV3660 or 40301
Chain of KDR (P35968 20-1356): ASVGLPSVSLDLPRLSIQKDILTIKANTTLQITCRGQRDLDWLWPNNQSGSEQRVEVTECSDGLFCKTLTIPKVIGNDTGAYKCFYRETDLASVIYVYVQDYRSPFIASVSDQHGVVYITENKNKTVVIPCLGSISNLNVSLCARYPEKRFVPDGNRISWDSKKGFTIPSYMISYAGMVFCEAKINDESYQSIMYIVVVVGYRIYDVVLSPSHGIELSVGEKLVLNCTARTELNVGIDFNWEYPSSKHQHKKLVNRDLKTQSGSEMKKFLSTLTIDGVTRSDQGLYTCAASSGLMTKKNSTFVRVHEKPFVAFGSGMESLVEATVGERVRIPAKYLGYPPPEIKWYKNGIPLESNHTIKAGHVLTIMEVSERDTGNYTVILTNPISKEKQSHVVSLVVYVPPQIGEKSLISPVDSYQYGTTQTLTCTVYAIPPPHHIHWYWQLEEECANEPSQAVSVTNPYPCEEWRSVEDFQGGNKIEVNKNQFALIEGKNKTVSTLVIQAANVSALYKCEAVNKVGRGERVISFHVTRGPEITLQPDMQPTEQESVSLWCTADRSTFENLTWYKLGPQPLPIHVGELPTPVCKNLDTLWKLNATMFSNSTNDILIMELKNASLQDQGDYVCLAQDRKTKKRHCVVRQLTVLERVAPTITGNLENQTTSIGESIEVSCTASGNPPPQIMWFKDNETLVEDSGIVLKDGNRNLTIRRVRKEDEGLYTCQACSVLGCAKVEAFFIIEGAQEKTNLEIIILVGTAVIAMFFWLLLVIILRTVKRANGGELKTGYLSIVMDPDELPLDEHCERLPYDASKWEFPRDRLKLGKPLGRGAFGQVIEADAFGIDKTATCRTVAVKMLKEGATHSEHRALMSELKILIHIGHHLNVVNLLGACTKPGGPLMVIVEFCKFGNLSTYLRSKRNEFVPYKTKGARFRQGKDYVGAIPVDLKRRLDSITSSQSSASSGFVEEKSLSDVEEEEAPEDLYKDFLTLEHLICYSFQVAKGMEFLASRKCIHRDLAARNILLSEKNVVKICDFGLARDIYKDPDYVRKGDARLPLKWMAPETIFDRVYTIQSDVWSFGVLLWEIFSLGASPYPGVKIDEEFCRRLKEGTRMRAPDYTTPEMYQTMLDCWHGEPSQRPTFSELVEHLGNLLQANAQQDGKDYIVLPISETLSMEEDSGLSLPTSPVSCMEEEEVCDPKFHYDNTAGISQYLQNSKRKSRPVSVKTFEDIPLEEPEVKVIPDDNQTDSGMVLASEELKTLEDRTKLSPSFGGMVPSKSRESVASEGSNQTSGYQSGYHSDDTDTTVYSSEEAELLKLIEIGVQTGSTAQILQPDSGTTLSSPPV
Protocol: as §1, §2
as §3, with “Calif.). […]” for “Calif.).”
as §4

PDGFRA = target: T2, PDGFRA (Homo sapiens, UniProt P16234); assay: Assay for PDGFRa (Omnia); format: biochemical
T2 construct: purchased PV3811
T2 sequence (P16234 24-1089): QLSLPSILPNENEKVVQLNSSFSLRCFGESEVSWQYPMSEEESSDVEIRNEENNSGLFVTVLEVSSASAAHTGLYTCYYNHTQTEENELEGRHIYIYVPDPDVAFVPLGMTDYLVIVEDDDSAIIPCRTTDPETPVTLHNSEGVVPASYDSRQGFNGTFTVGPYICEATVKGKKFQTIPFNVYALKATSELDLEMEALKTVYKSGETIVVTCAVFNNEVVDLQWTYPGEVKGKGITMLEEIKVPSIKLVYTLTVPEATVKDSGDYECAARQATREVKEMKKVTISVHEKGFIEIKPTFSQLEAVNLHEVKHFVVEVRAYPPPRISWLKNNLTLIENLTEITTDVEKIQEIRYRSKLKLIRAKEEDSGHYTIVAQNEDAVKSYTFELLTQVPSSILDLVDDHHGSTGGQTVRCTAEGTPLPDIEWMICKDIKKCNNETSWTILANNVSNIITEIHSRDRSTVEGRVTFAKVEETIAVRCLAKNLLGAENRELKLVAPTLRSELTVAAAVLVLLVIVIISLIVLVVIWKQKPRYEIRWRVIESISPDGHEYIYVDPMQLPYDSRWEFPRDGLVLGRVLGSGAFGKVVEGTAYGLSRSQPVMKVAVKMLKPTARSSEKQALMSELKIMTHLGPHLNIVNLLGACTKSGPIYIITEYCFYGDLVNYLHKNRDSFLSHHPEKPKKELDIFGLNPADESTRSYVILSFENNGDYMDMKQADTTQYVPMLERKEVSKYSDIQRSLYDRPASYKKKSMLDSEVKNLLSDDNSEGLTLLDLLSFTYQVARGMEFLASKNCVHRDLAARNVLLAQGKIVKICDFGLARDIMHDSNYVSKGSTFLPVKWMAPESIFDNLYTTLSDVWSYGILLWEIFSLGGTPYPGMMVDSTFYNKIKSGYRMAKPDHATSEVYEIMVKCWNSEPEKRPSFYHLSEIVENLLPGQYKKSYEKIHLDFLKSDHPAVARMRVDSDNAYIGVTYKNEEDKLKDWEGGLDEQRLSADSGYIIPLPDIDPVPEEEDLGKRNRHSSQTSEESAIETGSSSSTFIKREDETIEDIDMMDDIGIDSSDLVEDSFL
Protocol: Briefly, 10× stock of PDGFRα (PV3811) enzyme, 1.13×ATP (AS001A) and Y12-Sox peptide substrates (KCZ1001) was prepared in 1× kinase reaction buffer consisting of 20 mM Tris, pH 7.5, 5 mM MgCl2, 1 mM EGTA, 5 mM β-glycerophosphate, 5% glycerol (10× stock, KB002A) and 0.2 mM DTT (DS001A). 5 μL of enzyme were pre-incubated in a Corning (#3574) 384-well, white, non-binding surface microtiter plate (Corning, N.Y.) for 30 min at 27° C. with a 0.5 μL volume of 50% DMSO and serially diluted compounds prepared in 50% DMSO. Kinase reactions were started with the addition of 45 μL of the ATP/Y9 or Y12-Sox peptide substrate mix and monitored every […] for 60 minutes at λex360/λem485 in a Synergy^4 plate reader from BioTek (Winooski, Vt.). At the conclusion of each assay, progress curves from each well were examined for linear reaction kinetics and fit statistics (R2, 95% confidence interval, absolute sum of squares). Initial velocity (0 minutes to 20+ minutes) from each reaction was determined from the slope of a plot of relative fluorescence units vs time (minutes) and then plotted against inhibitor concentration to estimate IC50 from log [Inhibitor] vs Response, Variable Slope model in GraphPad Prism from GraphPad Software (San Diego, Calif.).
[PDGFRα]=2-5 nM, [ATP]=60 μM and [Y9-Sox peptide]=10 μM (ATP KMapp=61 μM)
as §4

CKIT [1] = target: CKIT (Homo sapiens, UniProt P10721); assay: c-Kit Omnia kinase assay; format: biochemical; details: reversible reference compounds; read-out: IC50 CKIT
Chain of CKIT (Homo sapiens, UniProt P10721) (P10721 26-976): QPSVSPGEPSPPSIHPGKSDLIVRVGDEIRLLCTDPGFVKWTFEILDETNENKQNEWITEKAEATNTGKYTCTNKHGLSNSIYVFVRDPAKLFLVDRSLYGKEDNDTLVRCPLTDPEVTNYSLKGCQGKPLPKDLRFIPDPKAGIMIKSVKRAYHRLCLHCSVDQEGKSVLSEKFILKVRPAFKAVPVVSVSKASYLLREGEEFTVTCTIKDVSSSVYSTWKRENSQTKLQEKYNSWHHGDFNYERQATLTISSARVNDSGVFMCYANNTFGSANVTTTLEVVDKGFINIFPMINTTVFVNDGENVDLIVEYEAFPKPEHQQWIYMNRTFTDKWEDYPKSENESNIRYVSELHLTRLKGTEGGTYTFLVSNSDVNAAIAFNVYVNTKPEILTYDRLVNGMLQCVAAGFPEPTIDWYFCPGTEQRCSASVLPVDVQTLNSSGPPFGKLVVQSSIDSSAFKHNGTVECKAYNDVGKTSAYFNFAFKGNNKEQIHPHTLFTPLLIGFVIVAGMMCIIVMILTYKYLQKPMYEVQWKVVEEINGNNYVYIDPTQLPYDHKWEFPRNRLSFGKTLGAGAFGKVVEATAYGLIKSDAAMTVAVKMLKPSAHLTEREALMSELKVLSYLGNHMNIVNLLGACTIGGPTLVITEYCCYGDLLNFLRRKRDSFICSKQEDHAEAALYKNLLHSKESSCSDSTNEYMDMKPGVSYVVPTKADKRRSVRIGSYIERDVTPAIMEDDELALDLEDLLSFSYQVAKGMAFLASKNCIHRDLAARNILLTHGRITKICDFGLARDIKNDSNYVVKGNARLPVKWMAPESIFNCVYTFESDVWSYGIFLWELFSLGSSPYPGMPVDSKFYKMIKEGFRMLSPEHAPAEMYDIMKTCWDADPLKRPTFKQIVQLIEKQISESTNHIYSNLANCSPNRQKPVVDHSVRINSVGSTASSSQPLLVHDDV

CKIT D816V = CKIT D816V (Homo sapiens, UniProt P10721, D816V); assay: c-Kit mutant Omnia kinase assay; format: biochemical; details: read-out: IC50_APP CKIT D816V
Chain of CKIT D816V (P10721 26-976 D816V): as the sequence (P10721 26-976) above, with D791V counted along it

CKIT [2] = assay: cKIT washout assay in GIST882 cells (C-kit phosphorylation, western blot); format: cell-based; details: 1 uM for 90 minutes, then washed free of compound
Protocol: GIST882 cells (See, Bauer et al., Cancer Research, 66(18):9153-9161 (2006)) were seeded in a 6 well plate at a density of 8×10^5 cells/well in complete media. The next day cells were treated with 1 uM compound diluted in complete media for 90 minutes. After 90 minutes, the media was removed and cells were washed with compound-free media. Cells were washed every 2 hours and resuspended in fresh compound-free media. Cells were collected at specified time points, lysed in Cell Extraction Buffer (Invitrogen FNN0011) supplemented with Roche complete protease inhibitor tablets (Roche 11697498001) and phosphatase inhibitors (Roche 04 906 837 001) and lysates were sheared by passing through a 28.5 gauge syringe 10 times each. Protein concentrations were measured and 10 ug total protein lysate was loaded in each lane. C-kit phosphorylation was assayed by western blot with pTyr (4G10) antibody and total kit antibody from Cell Signaling Technology.
Sorafenib and XVIII-11 were tested for cellular activity in a GIST882 cell line at 1 micromolar. The results are depicted in FIGS. 2a and 2b where it is shown that XVIII-11 maintained c-KIT enzyme inhibition in […] cells after “washout” for at least 8 hours. […] In order to understand whether there was a prolonged inhibition with the irreversible inhibitor the cells were washed free of compound. For the reversible inhibitor, Sorafenib, the inhibitory activity of cKIT and downstream signaling was overcome whereas the irreversible inhibition of XVIII-11 persisted for at least 8 hours.

[3] = 30 min pre-incubation, [ATP]=500 μM, read-out: IC50_APP FLT3
[4] = 30 min pre-incubation, read-out: IC50_APP KDR
[5] = 30 min pre-incubation, [ATP]=60 μM, read-out: IC50_APP PDGFRA

| IC50 (FLT3; reversible reference compounds, read-out: IC50 FLT3) [nM] | IC50 (KDR; reversible reference compounds, read-out: IC50 KDR) [nM] | IC50 (PDGFRA; reversible reference compounds, read-out: IC50 PDGFRA) [nM] | IC50 (CKIT [1]) [nM] | IC50 (FLT3; [3]) [nM] | IC50 (KDR; [4]) [nM] | IC50 (PDGFRA; [5]) [nM] | Compound | IC50 (CKIT D816V) [nM] | duration of c-KIT inhibition after washout (CKIT [2]) |
| --- | --- | --- | --- | --- | --- | --- | --- | --- | --- |
| 0.461 | 39.4 | 4.15 | 16.3 |  |  |  | CCC(=O)Nc1ccc(NC(=O)Nc2ccc(Oc3ccnc(C(=O)NC)c3)cc2)cc1C(F)(F)F [Reversible Reference Compound 3, 4-(4-(3-(4-(Propionamido)-3-(trifluoromethyl)phenyl)ureido)phenoxy)-N-methylpicolinamide, reference compound] |  |  |
|  |  |  |  | 0.508 | 0.95 | 0.508 | CNC(=O)c1cc(Oc2ccc(NC(=O)Nc3ccc(NC(=O)CCl)c(C(F)(F)F)c3)cc2)ccn1 [XVIII-13, 4-(4-(3-(4-(2-Chloroacetamido)-3-(trifluoromethyl)phenyl)ureido)phenoxy)-N-methylpicolinamide] |  |  |
|  |  |  |  | 107 | 6.94 | 1.54 | CNC(=O)c1cc(Oc2ccc(NC(=O)Nc3ccc(NC(=O)C(C)Cl)c(C(F)(F)F)c3)cc2)ccn1 (centres unmarked) [XVIII-14, 4-(4-(3-(4-(2-Chloropropionamido)-3-(trifluoromethyl)phenyl)ureido)phenoxy)-N-methylpicolinamide] |  |  |

| Compound | IC50 (FLT3; reversible reference compounds, read-out: IC50 FLT3) [nM] | IC50 (KDR; reversible reference compounds, read-out: IC50 KDR) [nM] | IC50 (PDGFRA; reversible reference compounds, read-out: IC50 PDGFRA) [nM] | IC50 (CKIT [1]) [nM] | IC50 (FLT3; [3]) [nM] | IC50 (KDR; [4]) [nM] | IC50 (PDGFRA; [5]) [nM] | IC50 (CKIT D816V) [nM] | duration of c-KIT inhibition after washout (CKIT [2]) |
| --- | --- | --- | --- | --- | --- | --- | --- | --- | --- |
| C=CC(=O)Nc1ccc(NC(=O)Nc2ccc(Oc3ccnc(C(=O)NC)c3)cc2)cc1C(F)(F)F [XVIII-11, 4-(4-(3-(4-Acrylamido-3-(trifluoromethyl)phenyl)ureido)phenoxy)-N-methylpicolinamide] |  |  |  |  | 1.99 | 26.9 |  | 3.42 | at least 8 hours |
